Assay results from ChEMBL document CHEMBL3091436, “4-Bicyclic heteroaryl-piperidine derivatives as potent, orally bioavailable Stearoyl-CoA desaturase-1 (SCD1) inhibitors. Part 1: urea-based analogs” (Bioorg Med Chem Lett, 2013).

How the values were obtained:
[1] = biological target: T1, Stearoyl-CoA desaturase (Homo sapiens) (UniProt O00767); experiment: Inhibition of SCD1 in human A431 cells assessed as conversion of 13C-palmitic acid to 13C-palmitoleic acid after 4 hrs by LC/MS analysis; type: cell-based; conditions: A-431
T1 sequence (whole entry): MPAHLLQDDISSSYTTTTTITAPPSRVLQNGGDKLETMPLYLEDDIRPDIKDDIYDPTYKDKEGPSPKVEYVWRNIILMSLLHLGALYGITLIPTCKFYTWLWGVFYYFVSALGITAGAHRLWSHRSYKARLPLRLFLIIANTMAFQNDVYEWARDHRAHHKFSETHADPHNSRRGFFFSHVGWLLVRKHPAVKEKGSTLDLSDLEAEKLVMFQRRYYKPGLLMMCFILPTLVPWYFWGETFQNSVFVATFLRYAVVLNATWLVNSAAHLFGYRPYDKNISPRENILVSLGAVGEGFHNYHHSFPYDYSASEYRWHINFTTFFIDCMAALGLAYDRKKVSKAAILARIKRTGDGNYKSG

[2] = biological target: T2, Acyl-CoA desaturase 1 (Rattus norvegicus, UniProt P07308); experiment: Inhibition of SCD1 in Sprague-Dawley rat liver microsomes using Stearoyl-[9,10-3H]-CoA as substrate assessed as [3H2O] generation
T2 sequence (P07308 whole entry): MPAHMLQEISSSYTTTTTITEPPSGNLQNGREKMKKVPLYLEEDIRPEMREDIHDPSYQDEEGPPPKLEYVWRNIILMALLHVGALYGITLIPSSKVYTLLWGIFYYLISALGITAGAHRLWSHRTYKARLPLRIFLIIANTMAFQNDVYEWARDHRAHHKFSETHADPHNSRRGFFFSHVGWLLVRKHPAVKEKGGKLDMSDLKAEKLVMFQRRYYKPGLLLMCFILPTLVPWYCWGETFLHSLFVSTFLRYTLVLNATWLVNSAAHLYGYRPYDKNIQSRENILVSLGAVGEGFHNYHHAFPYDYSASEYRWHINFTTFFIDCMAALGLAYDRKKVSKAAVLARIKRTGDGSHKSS

[3] = Oral bioavailability in rat at 10 mg/kg; type: ADME, organism-based; conditions: in vivo
[4] = test system: Mus musculus; experiment: Hepatotoxicity in DIO C57BL/6 mouse assessed as plasma AST level at 30 mg/kg, po qd after 10 days (reference value: 99 +/- 9 U/L); type: toxicity, organism-based; set-up: dose 30 mg/kg, route oral; conditions: in vivo, 240 h
[5] = test system: Mus musculus; experiment: Antiobesity activity in DIO C57BL/6 mouse assessed as decrease in body weight gain at 30 mg/kg, po bid (reference value: 2.06 +/- 0.33 g); type: functional
[6] = test system: Mus musculus; experiment: Antiobesity activity in po dosed DIO C57BL/6 mouse assessed as decrease in body weight gain administered as qd/bid; type: functional, organism-based
[7] = test system: Mus musculus; experiment: Hepatotoxicity in DIO C57BL/6 mouse assessed as plasma AST level at 10 mg/kg, po qd after 10 days (reference value: 99 +/- 9 U/L); type: toxicity, organism-based; set-up: dose 10 mg/kg, route oral; conditions: in vivo, 240 h
[8] = AUC (24 hrs) in rat at 10 mg/kg, po; type: ADME, organism-based; set-up: time < 24 hr, dose 10 mg/kg, route oral; conditions: plasma
[9] = Cmax in rat at 10 mg/kg, po; type: ADME, organism-based; set-up: dose 10 mg/kg, route oral; conditions: in vivo
[10] = test system: Mus musculus; experiment: Hepatotoxicity in DIO C57BL/6 mouse assessed as plasma AST level at 30 mg/kg, po bid after 10 days (reference value: 99 +/- 9 U/L); type: toxicity, organism-based; set-up: dose 30 mg/kg, route oral; conditions: in vivo, 240 h
[11] = Half life in rat at 10 mg/kg, po; type: ADME, organism-based; set-up: dose 10 mg/kg, route oral; conditions: in vivo
[12] = Half life in DIO mouse at 30 mg/kg, po; type: ADME, organism-based; set-up: dose 30 mg/kg, route oral; conditions: in vivo
[13] = Half life in rat at 2 mg/kg, iv; type: ADME, organism-based; set-up: dose 2 mg/kg, route intravenous; conditions: in vivo
[14] = test system: Mus musculus; experiment: Hepatotoxicity in DIO C57BL/6 mouse assessed as plasma ALT level at 30 mg/kg, po qd after 10 days (reference value: 58 +/- 5 U/L); type: toxicity, organism-based; set-up: dose 30 mg/kg, route oral; conditions: in vivo, 240 h
[15] = AUC (24 hrs) in DIO mouse at 30 mg/kg, po; type: ADME, organism-based; set-up: time < 24 hr, dose 30 mg/kg, route oral; conditions: plasma
[16] = test system: Mus musculus; experiment: Hepatotoxicity in DIO C57BL/6 mouse assessed as plasma ALT level at 10 mg/kg, po qd after 10 days (reference value: 58 +/- 5 U/L); type: toxicity, organism-based; set-up: dose 10 mg/kg, route oral; conditions: in vivo, 240 h
[17] = Cmax in rat at 2 mg/kg, iv; type: ADME, organism-based; set-up: dose 2 mg/kg, route intravenous; conditions: in vivo
[18] = test system: Mus musculus; experiment: Antiobesity activity in DIO C57BL/6 mouse assessed as decrease in body weight gain at 30 mg/kg, po qd (reference value: 2.06 +/- 0.33 g); type: functional
[19] = Volume of distribution at steady state in rat at 2 mg/kg, iv; type: ADME, organism-based; set-up: dose 2 mg/kg, route intravenous; conditions: in vivo, read-out: Vdss
[20] = AUC (24 hrs) in rat at 2 mg/kg, iv; type: ADME, organism-based; set-up: time < 24 hr, dose 2 mg/kg, route intravenous; conditions: plasma
[21] = Cmax in DIO mouse at 30 mg/kg, po; type: ADME, organism-based; set-up: dose 30 mg/kg, route oral; conditions: in vivo
[22] = test system: Mus musculus; experiment: Hepatotoxicity in DIO C57BL/6 mouse assessed as plasma ALT level at 30 mg/kg, po bid after 10 days (reference value: 58 +/- 5 U/L); type: toxicity, organism-based; set-up: dose 30 mg/kg, route oral; conditions: in vivo, 240 h
[23] = Clearance in rat at 10 mg/kg, po; type: ADME, organism-based; set-up: dose 10 mg/kg, route oral; conditions: in vivo
[24] = test system: Mus musculus; experiment: Antiobesity activity in DIO C57BL/6 mouse assessed as decrease in body weight gain at 10 mg/kg, po qd (reference value: 2.06 +/- 0.33 g); type: functional
[25] = biological target: T3, Acyl-CoA desaturase 1 (Rattus norvegicus) (UniProt P07308); experiment: Inhibition of SCD1 in Sprague-Dawley rat liver microsomes using Stearoyl-[9,10-3H]-CoA as substrate assessed as [3H2O] generation at 1 uM
T3 sequence (whole entry): T2 sequence (P07308 whole entry)

Compound `O=C(Nc1nc(CO)cs1)N1CCC(N2CCc3ccc(F)cc32)CC1` has an IC50 [1] of 42 nM.
Work on `O=C(Nc1ncc(CCO)s1)N1CCC(N2CCc3ccc(F)cc32)CC1` yielded an IC50 [1] of 6 nM.
With `O=C1NCCn2nc(NC(=O)N3CCC(N4CCc5ccc(F)cc54)CC3)cc21` the IC50 [1] was 30 nM and the IC50 [2] was 18 nM.
Work on `Cc1csc(NC(=O)N2CCC(c3noc4ccc(F)cc34)CC2)n1` yielded an IC50 [1] of 54 nM, a bioavailability [3] of 36.9% and an Activity [4] of 93 U/L. The Activity [5] was -0.69 g, the Activity [6] was “Dose-dependent effect” and the Activity [7] was 89 U/L. The AUC at 24 h [8] was 118 µg·h/mL, the Cmax [9] was 8800 ng/mL and the Activity [10] was 102 U/L. It also gave a half-life [11] of 6.3 h, a half-life [12] of 3.1 h and a half-life [13] of 3.8 h. For the same compound, the Activity [14] was 68 U/L, the AUC at 24 h [15] was 169 µg·h/mL and the Activity [16] was 57 U/L. It also gave a Cmax [17] of 9200 ng/mL, an Activity [18] of 0.01 g and a Vd [19] of 0.19 L/kg. It also gave an AUC at 24 h [20] of 49.8 µg·h/mL, a Cmax [21] of 14900 ng/mL and an Activity [22] of 41 U/L. For the same compound, the CL/F [23] was 0.5 mL/min/kg and the Activity [24] was 0 g.
In the case of `Cc1csc(NC(=O)N2CCC(N3CCc4ccc(F)cc43)CC2)n1`, the IC50 [1] is reported as 21 nM.
In the case of `O=C(CO)N1CCc2nc(NC(=O)N3CCC(N4CCc5ccc(F)cc54)CC3)sc2C1`, the IC50 [1] is reported as 113 nM.
`CNC(=O)c1csc(NC(=O)N2CCC(N3CCc4ccc(F)cc43)CC2)n1` gave an inhibition [25] of 20%.
Compound `CC(=O)N1CCc2nc(NC(=O)N3CCC(N4CCc5ccc(F)cc54)CC3)sc2C1` has an inhibition [25] of 46%.
Compound `CNC(=O)c1cccc(NC(=O)N2CCC(c3c[nH]c4ccccc34)CC2)c1` has an inhibition [25] of 15%.
For `O=C(Nc1nc2c(s1)CCCC2)N1CCC(N2CCc3ccc(F)cc32)CC1`, the IC50 [1] was 76 nM.
`O=C(Nc1nc2c(s1)CNCC2)N1CCC(N2CCc3ccc(F)cc32)CC1` showed an IC50 [1] of 16 nM.
`O=C(Nc1ncc(CO)s1)N1CCC(N2CCc3ccc(F)cc32)CC1` showed an IC50 [1] of 154 nM.
In the case of `CNC(=O)c1cnc(NC(=O)N2CCC(N3CCc4ccc(F)cc43)CC2)s1`, the IC50 [1] is reported as 206 nM.
In the case of `Cc1csc(NC(=O)N2CCC(n3ccc4ccccc43)CC2)n1`, the IC50 [2] is reported as 538 nM.
`Cc1cnc(NC(=O)N2CCC(N3CCc4ccc(F)cc43)CC2)s1` gave an IC50 [1] of 108 nM.
With `O=C(Nc1nc2c(s1)COCC2)N1CCC(N2CCc3ccc(F)cc32)CC1` the IC50 [1] was 17 nM.
For `CNC(=O)c1cccc(NC(=O)N2CCC(N3C(=O)Cc4ccccc43)CC2)c1`, the inhibition [25] was 7%.
`O=C(Nc1nc(CCO)cs1)N1CCC(N2CCc3ccc(F)cc32)CC1` showed an IC50 [1] of 18 nM.
With `O=C(Nc1nc2c(s1)CC(O)CC2)N1CCC(N2CCc3ccc(F)cc32)CC1` (stereo not given) the IC50 [1] was 1 nM and the IC50 [2] was 14 nM.
In the case of `NC(=O)c1cnc(NC(=O)N2CCC(N3CCc4ccc(F)cc43)CC2)s1`, the IC50 [1] is reported as 49 nM.
`Cc1csc(NC(=O)N2CCC(N3CCc4ccccc43)CC2)n1` gave an IC50 [2] of 153 nM.
